Assay results from ChEMBL document CHEMBL4507309 (2021).

Assays:
[1] = molecular target: Alpha-2C adrenergic receptor (Homo sapiens) (UniProt P18825); conditions: Compound concentration 10.0 uM
[2] = molecular target: T1, 5-hydroxytryptamine receptor 2B (Homo sapiens, UniProt P41595); assay: GPCRScan assay: inhibition of 5-HT2B; design: radioligand conc. used [nm] 1.0 – 2.0, parental cells stable HEK
[3] = molecular target: T2, GABA-A receptor; anion channel (Rattus norvegicus) (UniProt O09028+P15431+P18506+P18508+P19969+P20236+P23574+P23576+P28471+P28473+P30191+P62813+P63079+P63138+Q91ZM7+Q9ES14); conditions: Compound concentration 10.0 uM
[4] = molecular target: T3, 5-hydroxytryptamine receptor 2A (Homo sapiens, UniProt P28223); conditions: Compound concentration 10.0 uM
T3 sequence (P28223 whole entry): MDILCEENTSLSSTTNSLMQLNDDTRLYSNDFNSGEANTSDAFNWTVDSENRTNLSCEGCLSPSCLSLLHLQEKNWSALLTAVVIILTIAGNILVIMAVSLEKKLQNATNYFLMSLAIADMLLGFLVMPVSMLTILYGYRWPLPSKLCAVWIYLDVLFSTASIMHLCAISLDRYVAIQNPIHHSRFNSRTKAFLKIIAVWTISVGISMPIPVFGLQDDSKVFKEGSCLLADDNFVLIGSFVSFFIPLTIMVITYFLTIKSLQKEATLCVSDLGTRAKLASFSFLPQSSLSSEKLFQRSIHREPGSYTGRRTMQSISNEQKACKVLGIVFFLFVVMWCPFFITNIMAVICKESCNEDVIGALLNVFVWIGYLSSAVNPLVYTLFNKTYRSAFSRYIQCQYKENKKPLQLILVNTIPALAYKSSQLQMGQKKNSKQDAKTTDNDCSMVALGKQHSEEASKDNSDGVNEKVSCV

[5] = molecular target: Alpha-1D adrenergic receptor (Homo sapiens) (UniProt P25100); conditions: Compound concentration 10.0 uM
[6] = molecular target: 5-hydroxytryptamine receptor 2C (Homo sapiens, UniProt P28335); assay: GPCRScan assay: inhibition of 5-HT2C; design: radioligand conc. used [nm] 1.0 – 2.5, parental cells HEK T
[7] = molecular target: Histamine H4 receptor (Homo sapiens) (UniProt Q9H3N8); conditions: Compound concentration 10.0 uM
[8] = molecular target: D(2) dopamine receptor (Homo sapiens) (UniProt P14416); conditions: Compound concentration 10.0 uM
[9] = molecular target: T4, 5-hydroxytryptamine receptor 1D (Homo sapiens, UniProt P28221); conditions: Compound concentration 10.0 uM
T4 sequence (P28221 whole entry): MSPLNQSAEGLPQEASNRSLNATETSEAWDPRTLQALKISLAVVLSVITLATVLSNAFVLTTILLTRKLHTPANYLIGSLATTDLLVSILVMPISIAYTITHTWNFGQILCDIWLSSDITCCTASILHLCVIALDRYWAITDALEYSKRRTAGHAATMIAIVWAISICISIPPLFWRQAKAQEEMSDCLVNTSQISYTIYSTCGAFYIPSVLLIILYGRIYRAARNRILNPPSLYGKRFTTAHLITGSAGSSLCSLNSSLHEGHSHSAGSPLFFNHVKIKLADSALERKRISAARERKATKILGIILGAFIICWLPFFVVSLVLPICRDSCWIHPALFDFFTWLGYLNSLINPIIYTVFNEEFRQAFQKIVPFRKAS

[10] = molecular target: T5, Kappa-type opioid receptor (Homo sapiens, UniProt P41145); assay: GPCRScan assay: inhibition of KOR; design: radioligand conc. used [nm] 0.6 – 1.2, parental cells stable HEK
T5 sequence (P41145 whole entry): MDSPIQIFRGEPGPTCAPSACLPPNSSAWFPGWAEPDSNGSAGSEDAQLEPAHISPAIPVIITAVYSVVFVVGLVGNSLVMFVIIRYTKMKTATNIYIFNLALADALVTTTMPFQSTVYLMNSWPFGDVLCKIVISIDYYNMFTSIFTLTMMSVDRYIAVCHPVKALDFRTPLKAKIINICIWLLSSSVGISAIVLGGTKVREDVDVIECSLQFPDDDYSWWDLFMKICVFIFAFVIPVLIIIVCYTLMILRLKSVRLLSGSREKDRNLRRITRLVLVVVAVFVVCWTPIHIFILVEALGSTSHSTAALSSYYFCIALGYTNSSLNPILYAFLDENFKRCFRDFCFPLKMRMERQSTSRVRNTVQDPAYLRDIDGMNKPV

Histamine H1 receptor [11] = molecular target: T6, Histamine H1 receptor (Homo sapiens, UniProt P35367); conditions: Compound concentration 10.0 uM
T6 sequence (P35367 whole entry): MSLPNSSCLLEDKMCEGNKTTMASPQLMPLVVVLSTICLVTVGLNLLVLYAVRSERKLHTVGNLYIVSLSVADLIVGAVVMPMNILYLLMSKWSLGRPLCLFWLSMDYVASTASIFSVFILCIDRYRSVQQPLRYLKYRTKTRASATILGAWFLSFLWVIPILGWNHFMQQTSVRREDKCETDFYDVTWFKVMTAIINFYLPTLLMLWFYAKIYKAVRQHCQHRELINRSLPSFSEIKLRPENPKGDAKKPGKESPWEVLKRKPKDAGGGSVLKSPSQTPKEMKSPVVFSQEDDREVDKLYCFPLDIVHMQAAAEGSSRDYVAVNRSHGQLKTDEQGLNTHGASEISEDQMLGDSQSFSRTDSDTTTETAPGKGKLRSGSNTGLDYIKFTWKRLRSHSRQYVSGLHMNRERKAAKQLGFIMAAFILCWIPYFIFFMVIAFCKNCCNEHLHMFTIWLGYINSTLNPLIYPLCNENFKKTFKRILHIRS

[12] = molecular target: Alpha-2B adrenergic receptor (Homo sapiens) (UniProt P18089); conditions: Compound concentration 10.0 uM
[13] = molecular target: Beta-1 adrenergic receptor (Homo sapiens) (UniProt P08588); conditions: Compound concentration 10.0 uM
[14] = molecular target: 5-hydroxytryptamine receptor 2C (Homo sapiens) (UniProt P28335); conditions: Compound concentration 10.0 uM
[15] = molecular target: T7, 5-hydroxytryptamine receptor 6 (Homo sapiens, UniProt P50406); assay: GPCRScan assay: inhibition of 5-HT6; design: radioligand conc. used [nm] 2.0 – 4.0, parental cells stable HEK
[16] = molecular target: Alpha-1A adrenergic receptor (Homo sapiens) (UniProt P35348); conditions: Compound concentration 10.0 uM
[17] = molecular target: Glutamate [NMDA] receptor (Homo sapiens) (UniProt Q05586+Q12879+Q13224+O15399+O60391+Q14957+Q8TCU5); assay: (§1) GPCRScan assay: inhibition of NMDA; assay type: protein-complex assay; design: radioligand conc. used [nm] 1.4 – 13.0; conditions: Compound concentration 10.0 uM
[18] = molecular target: Glutamate [NMDA] receptor; assay: as §1; assay type: protein-complex assay, Homo sapiens; design: radioligand conc. used [nm] 1.4 – 13.0
[19] = molecular target: Sigma non-opioid intracellular receptor 1 (Homo sapiens) (UniProt Q99720); conditions: Compound concentration 10.0 uM
[20] = molecular target: 5-hydroxytryptamine receptor 1A (Homo sapiens) (UniProt P08908); conditions: Compound concentration 10.0 uM
[21] = molecular target: 5-hydroxytryptamine receptor 3A (Homo sapiens) (UniProt P46098); conditions: Compound concentration 10.0 uM
[22] = molecular target: T8, Sodium-dependent dopamine transporter (Homo sapiens, UniProt Q01959); conditions: Compound concentration 10.0 uM
T8 sequence (Q01959 whole entry): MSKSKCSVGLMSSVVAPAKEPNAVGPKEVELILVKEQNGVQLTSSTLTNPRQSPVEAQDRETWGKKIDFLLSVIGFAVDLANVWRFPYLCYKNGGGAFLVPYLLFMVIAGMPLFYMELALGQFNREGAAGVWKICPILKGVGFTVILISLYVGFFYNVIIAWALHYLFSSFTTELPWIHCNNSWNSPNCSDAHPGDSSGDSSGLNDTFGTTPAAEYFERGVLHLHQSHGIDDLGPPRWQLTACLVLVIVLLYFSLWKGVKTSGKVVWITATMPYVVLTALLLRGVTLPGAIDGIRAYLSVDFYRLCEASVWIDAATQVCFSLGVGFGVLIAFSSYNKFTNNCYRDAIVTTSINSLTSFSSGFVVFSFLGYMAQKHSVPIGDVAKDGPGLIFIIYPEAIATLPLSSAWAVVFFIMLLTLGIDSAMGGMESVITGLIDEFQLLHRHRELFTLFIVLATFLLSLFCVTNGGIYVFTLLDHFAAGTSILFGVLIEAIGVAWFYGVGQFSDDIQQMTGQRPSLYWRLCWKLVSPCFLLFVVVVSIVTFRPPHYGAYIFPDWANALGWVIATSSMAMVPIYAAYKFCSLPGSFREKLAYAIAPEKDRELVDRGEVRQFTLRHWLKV

[23] = molecular target: 5-hydroxytryptamine receptor 4 (Homo sapiens, UniProt Q13639); assay: GPCRScan assay: inhibition of 5-HT4; design: radioligand conc. used [nm] 0.5 – 2.0, parental cells HEK T
Chain of 5-hydroxytryptamine receptor 4 (Q13639 whole entry): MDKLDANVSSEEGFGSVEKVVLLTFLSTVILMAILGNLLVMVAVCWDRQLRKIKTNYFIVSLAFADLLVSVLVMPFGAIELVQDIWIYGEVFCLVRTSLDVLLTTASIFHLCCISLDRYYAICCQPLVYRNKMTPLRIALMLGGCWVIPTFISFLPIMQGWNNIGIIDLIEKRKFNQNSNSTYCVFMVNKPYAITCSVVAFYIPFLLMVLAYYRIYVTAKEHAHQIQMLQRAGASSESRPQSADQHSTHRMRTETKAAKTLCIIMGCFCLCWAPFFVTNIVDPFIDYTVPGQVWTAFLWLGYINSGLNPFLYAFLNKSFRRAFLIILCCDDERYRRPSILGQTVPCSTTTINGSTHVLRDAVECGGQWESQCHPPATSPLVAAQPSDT

[24] = molecular target: T3, 5-hydroxytryptamine receptor 2A; assay: GPCRScan assay: inhibition of 5-HT2A; design: radioligand conc. used [nm] 1.2 – 2.4, parental cells HEKT
D(1A) dopamine receptor [25] = molecular target: T9, D(1A) dopamine receptor (Homo sapiens, UniProt P21728); conditions: Compound concentration 10.0 uM
[26] = molecular target: T10, 5-hydroxytryptamine receptor 7 (Homo sapiens, UniProt P34969); conditions: Compound concentration 10.0 uM
[27] = molecular target: Muscarinic acetylcholine receptor M1 (Homo sapiens, UniProt P11229); assay: GPCRScan assay: inhibition of M1; design: radioligand conc. used [nm] 0.3 – 1.2, parental cells stable CHO
Rattus norvegicus = species: Rattus norvegicus; conditions: Compound concentration 10.0 uM
Histamine H2 receptor [28] = molecular target: T11, Histamine H2 receptor (Homo sapiens, UniProt P25021); assay: GPCRScan assay: inhibition of H2; design: radioligand conc. used [nm] 0.02 – 0.05, parental cells Stable HEK
T11 sequence (P25021 whole entry): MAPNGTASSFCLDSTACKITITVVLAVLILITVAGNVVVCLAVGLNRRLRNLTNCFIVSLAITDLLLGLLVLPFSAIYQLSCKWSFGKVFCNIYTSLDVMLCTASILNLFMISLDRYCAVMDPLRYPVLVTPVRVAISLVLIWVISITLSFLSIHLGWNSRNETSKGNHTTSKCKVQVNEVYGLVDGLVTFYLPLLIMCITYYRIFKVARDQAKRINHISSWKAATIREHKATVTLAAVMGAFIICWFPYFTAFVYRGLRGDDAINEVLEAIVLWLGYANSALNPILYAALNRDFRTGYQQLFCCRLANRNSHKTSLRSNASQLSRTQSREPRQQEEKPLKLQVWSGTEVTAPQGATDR

[29] = molecular target: D(1B) dopamine receptor (Homo sapiens) (UniProt P21918); conditions: Compound concentration 10.0 uM
[30] = molecular target: Muscarinic acetylcholine receptor M1 (Homo sapiens) (UniProt P11229); conditions: Compound concentration 10.0 uM
[31] = molecular target: D(3) dopamine receptor (Homo sapiens) (UniProt P35462); conditions: Compound concentration 10.0 uM
[32] = molecular target: T10, 5-hydroxytryptamine receptor 7; assay: GPCRScan assay: inhibition of 5-HT7A; design: radioligand conc. used [nm] 5.0 – 6.0, parental cells Stable HEK
[33] = molecular target: Alpha-2B adrenergic receptor (Homo sapiens, UniProt P18089); assay: GPCRScan assay: inhibition of Alpha2B; design: radioligand conc. used [nm] 1.5 – 2.0, parental cells HEKT
Chain of Alpha-2B adrenergic receptor (P18089 whole entry): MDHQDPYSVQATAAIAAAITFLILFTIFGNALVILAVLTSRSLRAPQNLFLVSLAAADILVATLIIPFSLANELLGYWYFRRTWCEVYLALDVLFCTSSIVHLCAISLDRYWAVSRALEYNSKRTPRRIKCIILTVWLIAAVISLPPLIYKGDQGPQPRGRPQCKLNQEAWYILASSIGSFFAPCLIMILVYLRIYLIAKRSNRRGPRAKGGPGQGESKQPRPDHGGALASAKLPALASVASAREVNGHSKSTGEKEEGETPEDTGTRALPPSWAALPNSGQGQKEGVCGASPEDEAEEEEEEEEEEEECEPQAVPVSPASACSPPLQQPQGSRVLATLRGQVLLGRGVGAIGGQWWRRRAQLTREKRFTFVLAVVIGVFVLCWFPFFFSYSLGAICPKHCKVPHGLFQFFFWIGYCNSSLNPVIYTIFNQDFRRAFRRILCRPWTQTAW

[34] = molecular target: 5-hydroxytryptamine receptor 3A (Homo sapiens, UniProt P46098); assay: GPCRScan assay: inhibition of 5-HT3; design: radioligand conc. used [nm] 1.0 – 2.0, parental cells HEKT
[35] = molecular target: T12, Sigma intracellular receptor 2 (Homo sapiens, UniProt Q5BJF2); conditions: Compound concentration 10.0 uM
T12 sequence (Q5BJF2 whole entry): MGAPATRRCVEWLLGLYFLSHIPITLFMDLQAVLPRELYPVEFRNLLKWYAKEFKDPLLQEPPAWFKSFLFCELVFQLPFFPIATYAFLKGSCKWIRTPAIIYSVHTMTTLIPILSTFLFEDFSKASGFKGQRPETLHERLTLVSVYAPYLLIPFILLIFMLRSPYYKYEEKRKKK

[36] = molecular target: Beta-3 adrenergic receptor (Homo sapiens) (UniProt P13945); conditions: Compound concentration 10.0 uM
[37] = molecular target: Beta-2 adrenergic receptor (Homo sapiens) (UniProt P07550); conditions: Compound concentration 10.0 uM
Histamine H2 receptor [38] = molecular target: T11, Histamine H2 receptor; conditions: Compound concentration 10.0 uM
[39] = molecular target: Mu-type opioid receptor (Homo sapiens) (UniProt P35372); conditions: Compound concentration 10.0 uM
[40] = molecular target: T12, Sigma intracellular receptor 2; assay: GPCRScan assay: inhibition of Sigma 2; design: radioligand conc. used [nm] 5.0, parental cells HEKT
Histamine H1 receptor [41] = molecular target: T6, Histamine H1 receptor; assay: GPCRScan assay: inhibition of H1; design: radioligand conc. used [nm] 0.6 – 2.0, parental cells stable HEK
[42] = molecular target: Sodium-dependent noradrenaline transporter (Homo sapiens) (UniProt P23975); conditions: Compound concentration 10.0 uM
[43] = molecular target: Muscarinic acetylcholine receptor M2 (Homo sapiens) (UniProt P08172); conditions: Compound concentration 10.0 uM
[44] = molecular target: T4, 5-hydroxytryptamine receptor 1D; assay: GPCRScan assay: inhibition of 5-HT1D; design: radioligand conc. used [nm] 1.0 – 2.0, parental cells HEKT
[45] = molecular target: Sodium-dependent serotonin transporter (Homo sapiens) (UniProt P31645); conditions: Compound concentration 10.0 uM
[46] = molecular target: Muscarinic acetylcholine receptor M2 (Homo sapiens, UniProt P08172); assay: GPCRScan assay: inhibition of M2; design: radioligand conc. used [nm] 0.2 – 1.0, parental cells stable CHO
[47] = molecular target: T13, 5-hydroxytryptamine receptor 1B (Homo sapiens, UniProt P28222); assay: GPCRScan assay: inhibition of 5-HT1B; design: radioligand conc. used [nm] 0.6 – 1.5, parental cells stable HEK
T13 sequence (P28222 whole entry): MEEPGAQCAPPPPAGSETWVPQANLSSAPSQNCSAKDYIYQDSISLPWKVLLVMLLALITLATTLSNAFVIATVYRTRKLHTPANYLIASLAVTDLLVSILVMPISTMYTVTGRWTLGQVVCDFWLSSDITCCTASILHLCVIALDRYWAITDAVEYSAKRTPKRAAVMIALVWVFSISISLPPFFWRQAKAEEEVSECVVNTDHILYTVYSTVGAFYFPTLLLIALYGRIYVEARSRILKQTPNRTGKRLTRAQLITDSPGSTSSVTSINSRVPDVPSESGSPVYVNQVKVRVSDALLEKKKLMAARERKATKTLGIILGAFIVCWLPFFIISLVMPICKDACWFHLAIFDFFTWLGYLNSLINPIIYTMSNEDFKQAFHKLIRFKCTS

[48] = molecular target: Delta-type opioid receptor (Homo sapiens) (UniProt P41143); conditions: Compound concentration 10.0 uM
[49] = molecular target: Muscarinic acetylcholine receptor M3 (Homo sapiens) (UniProt P20309); conditions: Compound concentration 10.0 uM
D(1A) dopamine receptor [50] = molecular target: T9, D(1A) dopamine receptor; assay: GPCRScan assay: inhibition of D1; design: radioligand conc. used [nm] 0.6 – 1.3, parental cells HEKT
[51] = molecular target: 5-hydroxytryptamine receptor 1A (Homo sapiens, UniProt P08908); assay: GPCRScan assay: inhibition of 5-HT1A; design: radioligand conc. used [nm] 0.5 – 1.0, parental cells stable CHO
[52] = molecular target: T8, Sodium-dependent dopamine transporter; assay: GPCRScan assay: inhibition of DAT; design: radioligand conc. used [nm] 3.6 – 16.0, parental cells stable HEK
[53] = molecular target: T7, 5-hydroxytryptamine receptor 6; conditions: Compound concentration 10.0 uM
[54] = molecular target: T1, 5-hydroxytryptamine receptor 2B; conditions: Compound concentration 10.0 uM
[55] = molecular target: T5, Kappa-type opioid receptor; conditions: Compound concentration 10.0 uM
[56] = molecular target: T13, 5-hydroxytryptamine receptor 1B; conditions: Compound concentration 10.0 uM
[57] = molecular target: T2, GABA-A receptor; anion channel (Rattus norvegicus); conditions: Compound concentration 10.0 uM; remark: listed apart in the source
[58] = molecular target: Alpha-1B adrenergic receptor (Homo sapiens) (UniProt P35368); conditions: Compound concentration 10.0 uM
[59] = molecular target: T14, 5-hydroxytryptamine receptor 5A (Homo sapiens, UniProt P47898); assay: GPCRScan assay: inhibition of 5-HT5A; design: radioligand conc. used [nm] 2.0 - 3.3, parental cells Flp-In CHO
T14 sequence (P47898 whole entry): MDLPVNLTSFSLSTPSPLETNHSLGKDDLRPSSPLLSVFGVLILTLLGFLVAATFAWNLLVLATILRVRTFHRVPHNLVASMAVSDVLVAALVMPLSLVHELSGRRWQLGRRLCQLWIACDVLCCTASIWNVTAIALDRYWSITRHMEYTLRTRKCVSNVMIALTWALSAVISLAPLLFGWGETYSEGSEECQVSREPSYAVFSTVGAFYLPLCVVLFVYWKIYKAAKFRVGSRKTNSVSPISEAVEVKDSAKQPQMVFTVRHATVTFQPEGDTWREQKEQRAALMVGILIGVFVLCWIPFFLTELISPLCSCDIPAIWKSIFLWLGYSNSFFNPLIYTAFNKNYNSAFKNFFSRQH

[60] = molecular target: Alpha-2A adrenergic receptor (Homo sapiens) (UniProt P08913); conditions: Compound concentration 10.0 uM
[61] = molecular target: Muscarinic acetylcholine receptor M5 (Homo sapiens) (UniProt P08912); conditions: Compound concentration 10.0 uM
[62] = molecular target: T14, 5-hydroxytryptamine receptor 5A; conditions: Compound concentration 10.0 uM

T1 sequence (P41595 whole entry): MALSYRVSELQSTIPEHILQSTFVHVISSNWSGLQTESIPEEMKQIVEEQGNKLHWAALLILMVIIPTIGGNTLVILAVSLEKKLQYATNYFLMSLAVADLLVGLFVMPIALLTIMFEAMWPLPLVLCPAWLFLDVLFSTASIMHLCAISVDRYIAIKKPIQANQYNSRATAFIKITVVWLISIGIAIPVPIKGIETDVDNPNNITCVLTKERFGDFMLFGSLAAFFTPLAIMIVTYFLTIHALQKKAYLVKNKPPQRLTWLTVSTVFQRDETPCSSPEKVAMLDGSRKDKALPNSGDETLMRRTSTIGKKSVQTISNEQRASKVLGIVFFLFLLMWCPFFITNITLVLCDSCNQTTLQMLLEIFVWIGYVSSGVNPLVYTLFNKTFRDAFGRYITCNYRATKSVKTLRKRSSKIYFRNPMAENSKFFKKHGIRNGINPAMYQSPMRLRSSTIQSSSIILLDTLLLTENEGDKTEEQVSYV

Cc1ccc2nc(CNCCCOc3ccccc3)cc(O)c2c1 [UCSF924]
inhibition [1]: 44.7%
Ki ([2]; read-out: Ki): 0.237 µM
Ki ([2]; read-out: pKi (converted)): 0.224 µM
inhibition [3]: 4.11%
inhibition [4]: 19.9%
inhibition [5]: 25.4%
Ki [6]: 5.55 µM
inhibition [7]: 0.51%
inhibition [8]: 8.56%
inhibition [9]: 58.6%
Ki ([10]; read-out: Ki): 2.31 µM
Ki ([10]; read-out: pKi (converted)): 2.19 µM
inhibition (Histamine H1 receptor [11]): 25.5%
inhibition [12]: 21.8%
inhibition [13]: 18.8%
inhibition [14]: 31.7%
Ki [15]: 6.68 µM
inhibition [16]: 23%
inhibition [17]: 0%
Ki [18]: 1 µM
inhibition [19]: 3.82%
inhibition [20]: 72.1%
inhibition [21]: 55%
inhibition [22]: 52.1%
Ki [23]: 6.69 µM
inhibition ([23]; Compound concentration 10.0 uM): 0%
Ki [24]: 3.28 µM
inhibition (D(1A) dopamine receptor [25]): 3.15%
inhibition [26]: 60%
Ki [27]: 4.05 µM
inhibition (Rattus norvegicus): 8.58%
Ki (Histamine H2 receptor [28]; read-out: Ki): 1.91 µM
Ki (Histamine H2 receptor [28]; read-out: pKi (converted)): 1.78 µM
inhibition [29]: 16.7%
inhibition [30]: 12.4%
inhibition [31]: 5.75%
Ki [32]: 2.08 µM
Ki ([33]; read-out: Ki): 3.04 µM
Ki ([33]; read-out: pKi (converted)): 2.57 µM
Ki ([34]; read-out: Ki): 3.99 µM
Ki ([34]; read-out: pKi (converted)): 3.72 µM
inhibition [35]: 50.3%
inhibition [36]: 11.6%
inhibition [37]: 33.3%
inhibition (Histamine H2 receptor [38]): 24.8%
inhibition [39]: 39.7%
Ki [40]: 1.89 µM
Ki (Histamine H1 receptor [41]; read-out: Ki): 4.55 µM
Ki (Histamine H1 receptor [41]; read-out: pKi (converted)): 4.68 µM
inhibition [42]: 26.2%
inhibition [43]: 22%
Ki ([44]; read-out: Ki): 3.25 µM
Ki ([44]; read-out: pKi (converted)): 3.14 µM
inhibition [45]: 35.4%
Ki [46]: 4.43 µM
Ki ([47]; read-out: Ki): 3.41 µM
Ki ([47]; read-out: pKi (converted)): 3.31 µM
inhibition [48]: 22.5%
inhibition [49]: -3.52%
Ki (D(1A) dopamine receptor [50]): 3.42 µM
Ki ([51]; read-out: Ki): 0.223 µM
Ki ([51]; read-out: pKi (converted)): 0.214 µM
Ki ([52]; read-out: Ki): 2.12 µM
Ki ([52]; read-out: pKi (converted)): 1.62 µM
inhibition [53]: 23%
inhibition [54]: 80%
inhibition [55]: 48.4%
inhibition [56]: 17.7%
inhibition [57]: 1.68%
inhibition [58]: 16.5%
Ki ([59]; read-out: Ki): 5.82 µM
Ki ([59]; read-out: pKi (converted)): 5.62 µM
inhibition [60]: 17.6%
inhibition [61]: 15.5%
inhibition [62]: 28.8%
